Conditions: not given

Question: For `C#Cc1ccc(C)cc1`, which boiling point is on record?
Answer: 169 °C

Question: Which boiling point does the source give for `Cc1ccc(Oc2ccc(C)cc2)cc1` here?
Answer: 285 °C

Question: What about the melting point of the same molecule?
Answer: 51 °C

Question: Which melting point does the source give for `CCOC(=O)NN` here?
Answer: 46 °C

Question: With `CC(C)(OOC(C)(C)c1ccccc1)c1ccccc1` as the molecule, how does the boiling point read?
Answer: 396 °C

Question: What about the ready biodegradability of the same molecule?
Answer: not readily biodegradable

Question: What does the source list for `CCC(=O)C(=O)CC`?
Answer: boiling point: 130 °C; melting point: -10 °C

Question: With `C[Si](C)(C)O[Si](C)(C)O[Si](C)(C)O[Si](C)(C)O[Si](C)(C)O[Si](C)(C)O[Si](C)(C)O[Si](C)(C)C` as the molecule, how does the log10 vapour pressure (mmHg) read?
Answer: -2.5

Question: For `CCC(=O)CC(=O)CC`, which ready biodegradability is on record?
Answer: readily biodegradable

Question: Which log10 vapour pressure (mmHg) does the source give for `CC(C)OC(=O)c1cc(-c2nn(C)c(C(F)(F)F)c2Br)c(F)cc1Cl` here?
Answer: -7.15

Question: And the melting point?
Answer: 80 °C

Question: With `CCCCCCCCCCCC[N+](CCO)(CCO)Cc1ccccc1.[Cl-]` as the molecule, how does the melting point read?
Answer: 108 °C

Question: For `CC(C)C(C)c1ccccc1` (stereo unspecified), which boiling point is on record?
Answer: 187 °C

Question: For `O=[N+]([O-])c1ccc(N=C=S)cc1`, which melting point is on record?
Answer: 111 °C

Question: What does the source list for `CCCC(=O)O`?
Answer: log10 Henry constant (atm·m³/mol): -6.27; log10 vapour pressure (mmHg): 0.217; melting point: -5.7 °C; ready biodegradability: readily biodegradable

Question: For `O/N=C\c1ccccc1`, which boiling point is on record?
Answer: 200 °C

Question: And the melting point?
Answer: 36.5 °C

Question: For `CCN(CC)c1ccc2c(-c3ccccc3C(=O)O)c3ccc(N(CC)CC)cc3[o+]c2c1.[Cl-]`, which melting point is on record?
Answer: 165 °C

Question: Which ready biodegradability does the source give for `NCCNCc1ccccc1` here?
Answer: not readily biodegradable

Question: For `CCC(CC)C(C)C(C)C` (stereo unspecified), which boiling point is on record?
Answer: 162 °C

Question: For `C1=CCSC1`, which boiling point is on record?
Answer: 122 °C

Question: With `CC1CCC(=O)CC1` as the molecule, how does the boiling point read?
Answer: 170 °C

Question: What about the log10 vapour pressure (mmHg) of the same molecule?
Answer: 0.176

Question: And the melting point?
Answer: -40.6 °C

Question: Which log10 vapour pressure (mmHg) does the source give for `[C-]#[N+]c1ccccc1` here?
Answer: 0.381

Question: Which melting point does the source give for `CCOC(=O)C(C(=O)OCC)C(C(=O)OCC)C(=O)OCC` here?
Answer: 77 °C

Question: For `Cc1ccc(C(C)(C)C)cc1`, which boiling point is on record?
Answer: 190 °C

Question: And the melting point?
Answer: -52 °C

Question: And the ready biodegradability?
Answer: readily biodegradable

Question: With `c1ccc(C2=N[C@H](c3ccccc3)[C@@H](c3ccccc3)N2)cc1` as the molecule, how does the melting point read?
Answer: 134 °C

Question: For `CC1C=CC(=O)O1` (stereo unspecified), which boiling point is on record?
Answer: 209 °C

Question: Which melting point does the source give for `Clc1cncc(Cl)n1` here?
Answer: 56.5 °C

Question: Which boiling point does the source give for `CCN(CC)CN(CC)CC` here?
Answer: 166 °C

Question: Which melting point does the source give for `Nc1ccc(S(=O)(=O)c2ccc(NC(=O)CCC(=O)O)cc2)cc1` here?
Answer: 157 °C

Question: For `C=CCC[C@@H](C)CC`, which boiling point is on record?
Answer: 113 °C

Question: For `CCCCOC(=O)CC(C)=O`, which melting point is on record?
Answer: -35.6 °C

Question: And the ready biodegradability?
Answer: readily biodegradable

Question: What does the source list for `c1ccc2c3c([nH]c2c1)CCCC3`?
Answer: boiling point: 328 °C; melting point: 120 °C

Question: Which boiling point does the source give for `CCC(C)(CC)c1ccccc1` here?
Answer: 205 °C

Question: What does the source list for `CC(C)(C)Cl`?
Answer: boiling point: 50.5 °C; melting point: -26 °C; ready biodegradability: not readily biodegradable

Question: Which results are given for `OCc1cccnc1`?
Answer: boiling point: 266 °C; melting point: -6.5 °C

Question: For `O=C(O)[C@H]1CCCC[C@H]1C(=O)OC(=O)[C@H]1CCCC[C@H]1C(=O)O`, which ready biodegradability is on record?
Answer: not readily biodegradable

Question: Which boiling point does the source give for `FCCCBr` here?
Answer: 101 °C

Question: With `CC=C[C@H](O)CCCC` as the molecule, how does the boiling point read?
Answer: 175 °C

Question: With `C=CCC(=C)C` as the molecule, how does the boiling point read?
Answer: 56 °C

Question: Which boiling point does the source give for `CCCCCOC(C)=O` here?
Answer: 149 °C

Question: What about the log10 Henry constant (atm·m³/mol) of the same molecule?
Answer: -3.41

Question: What about the log10 Koa of the same molecule?
Answer: 4.12

Question: And the log10 vapour pressure (mmHg)?
Answer: 0.544

Question: And the melting point?
Answer: -70.8 °C

Question: With `C[N+](C)(C)c1ccccc1.[I-]` as the molecule, how does the melting point read?
Answer: 224 °C

Question: For `C=C(C)C1CC=C(C)C(O)C1` (stereo unspecified), which boiling point is on record?
Answer: 228 °C

Question: Which boiling point does the source give for `CCOC(=O)c1ccc2c(c1)OCO2` here?
Answer: 286 °C

Question: What about the melting point of the same molecule?
Answer: 18.5 °C

Question: For `FC(Cl)=C(Cl)C(F)(F)F`, which boiling point is on record?
Answer: 47.3 °C

Question: And the melting point?
Answer: -137 °C

Question: With `Clc1ccc(-c2ccccc2Cl)cc1` as the molecule, how does the log10 Henry constant (atm·m³/mol) read?
Answer: -3.64

Question: And the log10 Koa?
Answer: 7.4

Question: And the log10 Koc (L/kg)?
Answer: 4.34

Question: What about the log10 vapour pressure (mmHg) of the same molecule?
Answer: -2.68

Question: Which boiling point does the source give for `Clc1cc(Cl)cc(Cl)c1` here?
Answer: 208 °C

Question: And the log10 Henry constant (atm·m³/mol)?
Answer: -2.72

Question: And the log10 Koa?
Answer: 4.85

Question: What about the log10 Koc (L/kg) of the same molecule?
Answer: 2.85

Question: And the log10 vapour pressure (mmHg)?
Answer: -0.62

Question: And the melting point?
Answer: 63.5 °C

Question: What about the ready biodegradability of the same molecule?
Answer: not readily biodegradable

Question: For `C=CC1CN2CCC1CC2C(=O)c1ccnc2ccc(OC)cc12` (stereo unspecified), which melting point is on record?
Answer: 108 °C

Question: With `CNC(C)CC1CCCCC1` (stereo unspecified) as the molecule, how does the boiling point read?
Answer: 205 °C

Question: For `Cc1ccc(C(N)=O)cc1`, which log10 Koc (L/kg) is on record?
Answer: 1.78

Question: What about the melting point of the same molecule?
Answer: 162 °C

Question: With `FC(F)(F)c1cccc(C(F)(F)F)c1` as the molecule, how does the boiling point read?
Answer: 116 °C

Question: And the ready biodegradability?
Answer: not readily biodegradable

Question: With `CN(C)Cc1cc(C(C)(C)C)c(O)c(C(C)(C)C)c1` as the molecule, how does the melting point read?
Answer: 93.5 °C

Question: Which melting point does the source give for `Cc1ccccc1NC(=N)Nc1ccccc1C` here?
Answer: 179 °C

Question: Which results are given for `Cc1c(Cl)cc(Cl)c(Cl)c1Cl`?
Answer: boiling point: 276 °C; melting point: 94 °C

Question: Which melting point does the source give for `CNC(=O)Oc1ccc2c(c1)[C@]1(C)CCN(C)OC1N2C` (stereo partly specified) here?
Answer: 129 °C

Question: Which ready biodegradability does the source give for `Cc1cc(-n2nc3ccc(Cl)cc3n2)c(O)c(C(C)(C)C)c1` here?
Answer: not readily biodegradable

Question: Which results are given for `CCCCCCOC(=O)CCCC`?
Answer: boiling point: 226 °C; melting point: -63.1 °C

Question: For `C=C(C)[C@H](C)O`, which boiling point is on record?
Answer: 114 °C

Question: With `CCCCC(C#N)(Cn1ccnc1)c1ccccc1` (stereo unspecified) as the molecule, how does the melting point read?
Answer: 161 °C

Question: What does the source list for `CC1CC1C` (stereo unspecified)?
Answer: boiling point: 32.6 °C; melting point: -145 °C

Question: Which boiling point does the source give for `Nc1ccc(C=CC(=O)O)cc1` here?
Answer: 285 °C

Question: What about the melting point of the same molecule?
Answer: 122 °C

Question: For `CCC(Cc1ccccc1)c1ccccc1` (stereo unspecified), which boiling point is on record?
Answer: 290 °C

Question: With `CCCOP(OCCC)OCCC` as the molecule, how does the boiling point read?
Answer: 206 °C

Question: For `O=C1c2ccccc2C(=O)C1c1ccc2ccccc2n1`, which melting point is on record?
Answer: 241 °C

Question: What does the source list for `CCCCCCCCCCCCCCCCN`?
Answer: boiling point: 322 °C; log10 vapour pressure (mmHg): -3.88; melting point: 46.8 °C

Question: For `C=CCC1(C(C)CCC)C(=O)NC(=S)NC1=O` (stereo unspecified), which melting point is on record?
Answer: 132 °C

Same assay, conditions: fish

Question: Which log10 BCF does the source give for `Brc1ccccc1` here?
Answer: 1.36

Question: And the log10 biotransformation half-life (days)?
Answer: -1.19

Question: Which results are given for `Cc1ccc([N+](=O)[O-])cc1O`?
Answer: log10 BCF: 0.85; log10 biotransformation half-life (days): -1.24

Question: What does the source list for `Nc1ccc(Cl)c(Cl)c1`?
Answer: log10 BCF: 1.11; log10 biotransformation half-life (days): -1.09

Question: Which log10 BCF does the source give for `c1ccc(Nc2ccc(Nc3ccccc3)cc2)cc1` here?
Answer: 3.12

Question: Which results are given for `O=[N+]([O-])c1ccc(Cl)c(Cl)c1Cl`?
Answer: log10 BCF: 2.2; log10 biotransformation half-life (days): -0.19

Question: For `CCOP(=S)(OCC)O/N=C(\C#N)c1ccccc1`, which log10 BCF is on record?
Answer: 2.91

Question: Which log10 BCF does the source give for `Clc1cc2c(cc1Cl)Oc1c(Cl)c(Cl)c(Cl)c(Cl)c1O2` here?
Answer: 4

Question: What about the log10 biotransformation half-life (days) of the same molecule?
Answer: 1.27

Question: For `O=C1c2ccccc2-c2cccc3cccc1c23`, which log10 BCF is on record?
Answer: 2.09

Question: And the log10 biotransformation half-life (days)?
Answer: -0.69

Question: For `CC(C)(OOC(C)(C)c1ccccc1)c1ccccc1`, which log10 BCF is on record?
Answer: 2.62

Question: And the log10 biotransformation half-life (days)?
Answer: -0.01

Question: For `Cc1ccc(C(C)(C)C)cc1`, which log10 biotransformation half-life (days) is on record?
Answer: 0.31

Question: What does the source list for `Clc1cc(Cl)cc(Cl)c1`?
Answer: log10 BCF: 2.97; log10 biotransformation half-life (days): 1.19

Source: the OPERA property sets (Mansouri et al. 2018)
